pEC50: −log10 of the molar value.

The target in this experiment is Protein cereblon/Eukaryotic peptide chain release factor GTP-binding subunit ERF3A (Homo sapiens, UniProt P15170+Q96SW2). Put plainly: PROTAC activity at CRBN/GSPT1 in human U-937 cells assessed as degradation of GSPT1 measured after 6 hrs by Western blot analysis. Type of experiment: cell-based.
Chain of Protein cereblon/Eukaryotic peptide chain release factor GTP-binding subunit ERF3A (Q96SW2 whole entry): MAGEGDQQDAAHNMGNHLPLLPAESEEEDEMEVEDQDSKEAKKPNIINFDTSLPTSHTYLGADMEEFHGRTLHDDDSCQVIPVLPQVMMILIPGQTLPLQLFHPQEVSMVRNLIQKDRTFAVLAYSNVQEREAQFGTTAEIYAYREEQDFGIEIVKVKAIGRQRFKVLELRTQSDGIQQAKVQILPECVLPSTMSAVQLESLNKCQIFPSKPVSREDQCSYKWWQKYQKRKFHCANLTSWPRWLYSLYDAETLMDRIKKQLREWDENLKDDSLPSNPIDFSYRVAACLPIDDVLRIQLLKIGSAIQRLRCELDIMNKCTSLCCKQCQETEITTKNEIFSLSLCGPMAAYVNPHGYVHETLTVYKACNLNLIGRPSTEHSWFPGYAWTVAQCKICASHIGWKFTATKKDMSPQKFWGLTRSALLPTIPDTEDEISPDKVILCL
Chain of Protein cereblon/Eukaryotic peptide chain release factor GTP-binding subunit ERF3A (P15170 whole entry): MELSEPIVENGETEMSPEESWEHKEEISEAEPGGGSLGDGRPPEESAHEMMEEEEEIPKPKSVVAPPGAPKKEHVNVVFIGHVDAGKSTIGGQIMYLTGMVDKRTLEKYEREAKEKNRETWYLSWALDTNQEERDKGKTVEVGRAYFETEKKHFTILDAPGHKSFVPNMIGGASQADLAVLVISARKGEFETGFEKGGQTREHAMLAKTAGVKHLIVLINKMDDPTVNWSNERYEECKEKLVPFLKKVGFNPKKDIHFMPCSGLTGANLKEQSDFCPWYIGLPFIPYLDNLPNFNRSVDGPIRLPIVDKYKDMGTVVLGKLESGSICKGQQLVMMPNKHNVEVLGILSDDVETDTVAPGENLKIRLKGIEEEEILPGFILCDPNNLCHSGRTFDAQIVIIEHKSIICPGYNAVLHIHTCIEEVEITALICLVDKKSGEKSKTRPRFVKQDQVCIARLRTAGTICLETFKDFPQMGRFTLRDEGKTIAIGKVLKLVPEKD

One may read the pEC50 as −log10 of the EC50, conventionally taken in molar units. Turning to `Cc1c(Cl)cc(NC(=O)CCc2ccc3c(c2)C(=O)N(C2CCC(=O)NC2=O)C3)cc1CN1CCN(C2COC2)CC1` (stereo unspecified), the pEC50 was 6.66.
The figure for `Cc1c(Cl)cc(NC(=O)CCc2ccc3c(c2)C(=O)N(C2CCC(=O)NC2=O)C3)cc1CN1CCN(C)CC1` (stereo unspecified) is 5.66; for `Cc1ccc(NC(=O)CC(C)c2ccc3c(c2)C(=O)N(C2CCC(=O)NC2=O)C3)cc1Cl` (stereo unspecified) it is below 5.00.
The figure for `Cc1ccc(NC(=O)CCc2ccc3c(c2)C(=O)N(C2CCC(=O)NC2=O)C3=O)cc1Cl` (stereo unspecified) is 6.35.
The figure for `Cc1ccc(NC(=O)CCc2ccc3c(c2)C(=O)N(C2CCC(=O)NC2=O)C3)cc1Cl` (stereo unspecified) is 7.74; for `Cc1c(Cl)cc(NC(=O)CCc2ccc3c(c2)C(=O)N(C2CCC(=O)NC2=O)C3)cc1CN1CC(N2CCOCC2)C1` (stereo unspecified) it is 6.68.
`Cc1ccc(NC(=O)CNc2ccc3c(c2)C(=O)N(C2CCC(=O)NC2=O)C3)cc1Cl` (stereo unspecified): the pEC50 is below 5.00.
With `Cc1c(Cl)cc(NC(=O)CCc2ccc3c(c2)C(=O)N(C2CCC(=O)NC2=O)C3)cc1CN1CCC(N2CCOCC2)CC1` (stereo unspecified) the figure was 6.75.
With `Cc1ccc(NC(=O)/C=C/c2cccc3c2CN(C2CCC(=O)NC2=O)C3=O)cc1Cl` (stereo unspecified) the figure was 5.51; with `Cc1c(Cl)cc(NC(=O)CCc2ccc3c(c2)C(=O)N(C2CCC(=O)NC2=O)C3)cc1CN1CC2(COC2)C1` (stereo unspecified), 7.07; with `Cc1cc(NC(=O)CCc2ccc3c(c2)C(=O)N(C2CCC(=O)NC2=O)C3)ccc1Cl` (stereo unspecified), 6.84.
The figure for `Cc1cc(NC(=O)C(C)Cc2ccc3c(c2)CN(C2CCC(=O)NC2=O)C3=O)ccc1Cl` (stereo unspecified) is below 5.00.
Turning to `Cc1ccc(NC(=O)/C=C/c2ccc3c(c2)C(=O)N(C2CCC(=O)NC2=O)C3)cc1Cl` (stereo unspecified), the pEC50 was below 5.00.
The figure for `Cc1c(Cl)cc(NC(=O)CCc2ccc3c(c2)C(=O)N(C2CCC(=O)NC2=O)C3)cc1CN1CCN(C2CCOCC2)CC1` (stereo unspecified) is 6.60; for `Cc1c(Cl)cc(NC(=O)CCc2ccc3c(c2)C(=O)N(C2CCC(=O)NC2=O)C3)cc1CN1CCOCC1` (stereo unspecified) it is 7.32; for `Cc1ccc(NC(=O)COc2ccc3c(c2)C(=O)N(C2CCC(=O)NC2=O)C3)cc1Cl` (stereo unspecified) it is below 5.00.
